Data reported in patent publication US20230295200A1 (REGENTS OF THE UNIVERSITY OF MICHIGAN, priority 2022, published 2023).
pKi: −log10 of the molar value.

Legend:
[1] = target: T1, STAT6 protein (Homo sapiens, UniProt P42226); assay: Fluorescence polarization (FP) binding assay, STAT6; conditions: FP competition, 5 nM fluorescein-labeled tracer, 200 nM protein, PBS pH7.4; read-out: Binding STAT6
T1 sequence (P42226 1-847): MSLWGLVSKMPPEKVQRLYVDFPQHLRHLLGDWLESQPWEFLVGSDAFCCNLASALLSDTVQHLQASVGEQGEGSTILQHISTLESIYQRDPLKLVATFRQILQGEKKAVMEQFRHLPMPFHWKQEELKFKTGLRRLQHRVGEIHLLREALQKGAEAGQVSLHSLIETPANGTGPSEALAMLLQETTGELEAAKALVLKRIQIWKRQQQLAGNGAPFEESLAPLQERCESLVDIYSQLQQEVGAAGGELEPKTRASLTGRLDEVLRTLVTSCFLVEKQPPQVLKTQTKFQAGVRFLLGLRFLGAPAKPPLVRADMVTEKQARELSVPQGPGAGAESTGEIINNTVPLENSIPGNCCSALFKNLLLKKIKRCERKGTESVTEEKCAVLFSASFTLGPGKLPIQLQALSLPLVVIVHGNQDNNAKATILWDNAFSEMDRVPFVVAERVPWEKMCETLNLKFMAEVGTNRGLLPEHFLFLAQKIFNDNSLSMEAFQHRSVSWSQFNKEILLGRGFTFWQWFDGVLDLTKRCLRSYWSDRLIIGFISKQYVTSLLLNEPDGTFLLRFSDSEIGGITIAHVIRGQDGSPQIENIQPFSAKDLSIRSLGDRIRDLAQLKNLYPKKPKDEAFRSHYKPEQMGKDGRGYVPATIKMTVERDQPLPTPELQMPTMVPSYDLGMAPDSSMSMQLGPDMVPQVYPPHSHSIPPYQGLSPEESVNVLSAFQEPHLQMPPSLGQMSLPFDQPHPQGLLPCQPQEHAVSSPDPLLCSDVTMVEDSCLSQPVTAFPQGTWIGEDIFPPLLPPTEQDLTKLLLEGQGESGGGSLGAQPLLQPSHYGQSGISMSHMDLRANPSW
Procedure, shortened: (§1)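 Fluorescein-labelled tracer (5 nM) with 200 nM STAT5 and/or STAT6 protein in PBS pH 7.4, 0.01% BGG, 0.01% Tween-20, 2 mM DTT. Mixed 15 min, then equilibrated 1 h at room temperature; read by fluorescence polarization, constants from nonlinear curve fitting.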

[2] = target: T2, STAT5A (Homo sapiens, UniProt P42229); assay: Fluorescence polarization (FP) binding assay, STAT5A; conditions: FP competition, 5 nM fluorescein-labeled tracer, 200 nM protein, PBS pH7.4
T2 sequence (P42229 1-794): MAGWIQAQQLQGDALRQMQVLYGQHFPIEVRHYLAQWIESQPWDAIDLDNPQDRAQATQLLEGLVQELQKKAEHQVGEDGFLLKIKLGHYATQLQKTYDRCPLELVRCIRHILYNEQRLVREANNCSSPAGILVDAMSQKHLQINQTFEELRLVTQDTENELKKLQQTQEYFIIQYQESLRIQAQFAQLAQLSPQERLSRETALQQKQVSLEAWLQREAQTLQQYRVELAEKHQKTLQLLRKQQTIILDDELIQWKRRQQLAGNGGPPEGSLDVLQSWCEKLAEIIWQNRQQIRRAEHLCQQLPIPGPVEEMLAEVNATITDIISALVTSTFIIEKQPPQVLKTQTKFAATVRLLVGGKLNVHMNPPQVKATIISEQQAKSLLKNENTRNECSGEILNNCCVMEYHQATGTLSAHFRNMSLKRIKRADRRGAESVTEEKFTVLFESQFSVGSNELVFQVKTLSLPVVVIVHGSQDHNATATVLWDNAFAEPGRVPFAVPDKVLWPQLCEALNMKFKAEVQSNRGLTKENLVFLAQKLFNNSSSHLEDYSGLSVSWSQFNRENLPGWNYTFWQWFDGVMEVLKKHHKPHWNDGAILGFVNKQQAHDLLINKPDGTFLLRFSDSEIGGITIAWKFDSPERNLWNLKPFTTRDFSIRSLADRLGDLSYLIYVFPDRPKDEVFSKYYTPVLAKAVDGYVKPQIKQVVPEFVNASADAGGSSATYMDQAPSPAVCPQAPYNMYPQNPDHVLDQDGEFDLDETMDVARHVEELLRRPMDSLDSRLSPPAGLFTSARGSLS
Procedure, shortened: as §1

Compound | pKi [1] | pKi [2]
CC(C)(C)[C@H](NC(=O)c1cc2cc(C(F)(F)P(=O)(O)O)ccc2s1)C(=O)N1CCC[C@H]1C(=O)N1CCOC(c2ccc(Cl)c(Cl)c2)C1 (stereo partly drawn) [Compound 114, ((2-(((2S)-1-((2S)-2-(2-(3,4-dichlorophenyl)morpholine-4-carbonyl)pyrrolidin-1-yl)-3,3-dimethyl-1-oxobutan-2-yl)carbamoyl)benzo[b]thiophen-5-yl)difluoromethyl)phosphonic acid] | 6.00 to 7.00 | 5.00 to 6.00
CCOC(=O)C1CCN(C(=O)[C@@H]2CCCN2C(=O)[C@@H](NC(=O)c2cc3cc(C(F)(F)P(=O)(O)O)ccc3s2)C(C)(C)C)CC1c1ccccc1 (stereo partly drawn) [Compound 115, ((2-(((2S)-1-((2S)-2-(4-(ethoxycarbonyl)-3-phenylpiperidine-1-carbonyl)pyrrolidin-1-yl)-3,3-dimethyl-1-oxobutan-2-yl)carbamoyl)benzo[b]thiophen-5-yl)difluoromethyl)phosphonic acid] | 5.00 to 6.00 | < 5.00
CC(=O)N1CC[C@H]2CC[C@@H](C(=O)N3CCOC[C@@H]3c3ccccc3)N2C(=O)[C@@H](NC(=O)c2cc3cc(C(F)(F)P(=O)(O)O)ccc3s2)C1 [Compound 120, ((2-(((5S,8S,10aR)-3-acetyl-6-oxo-8-((S)-3-phenylmorpholine-4-carbonyl)decahydropyrrolo[1,2-a][1,5]diazocin-5-yl)carbamoyl)benzo[b]thiophen-5-yl)difluoromethyl)phosphonic acid] | 5.00 to 6.00 | < 5.00
CC(=O)N1CC[C@H]2CC[C@@H](C(=O)N3CCOC[C@H]3c3ccccc3)N2C(=O)[C@@H](NC(=O)c2cc3cc(C(F)(F)P(=O)(O)O)ccc3s2)C1 [Compound 121, ((2-(((5S,8S,10aR)-3-acetyl-6-oxo-8-((R)-3-phenylmorpholine-4-carbonyl)decahydropyrrolo[1,2-a][1,5]diazocin-5-yl)carbamoyl)benzo[b]thiophen-5-yl)difluoromethyl)phosphonic acid] | 5.00 to 6.00 | < 5.00
CC(=O)NC(C)(C)[C@H](NC(=O)c1cc2cc(C(F)(F)P(=O)(O)O)ccc2s1)C(=O)N1CCC[C@H]1C(=O)N1CCO[C@H](c2ccccc2)C1 [Compound 122, ((2-(((S)-3-acetamido-3-methyl-1-oxo-1-((S)-2-((R)-2-phenylmorpholine-4-carbonyl)pyrrolidin-1-yl)butan-2-yl)carbamoyl)benzo[b]thiophen-5-yl)difluoromethyl)phosphonic acid] | 6.00 to 7.00 | < 5.00
CC(C)(C)[C@H](NC(=O)c1cc2cc(C(F)(F)P(=O)(O)O)ccc2s1)C(=O)N1CCC[C@H]1C(=O)N1CCC(C(=O)O)C(c2ccccc2)C1 (stereo partly drawn) [Compound 123, 1-(((S)-2-(5-(difluoro(phosphono)methyl)benzo [b]thiophene-2-carboxamido)-3,3-dimethylbutanoyl)-L-prolyl)-3-phenylpiperidine-4-carboxylic acid] | 5.00 to 6.00 | < 5.00
CC(C)(C)[C@H](NC(=O)c1cc2cc(C(F)(F)P(=O)(O)O)ccc2s1)C(=O)N1CCC[C@H]1C(=O)N1CCCOC(c2ccccc2)C1 (stereo partly drawn) [Compound 124, ((2-(((2S)-3,3-dimethyl-1-oxo-1-((2S)-2-(2-phenyl-1,4-oxazepane-4-carbonyl)pyrrolidin-1-yl)butan-2-yl)carbamoyl)benzo[b]thiophen-5-yl)difluoromethyl)phosphonic acid] | 6.00 to 7.00 | 5.00 to 6.00
CC(C)(C)[C@H](NC(=O)c1cc2cc(C(F)(F)P(=O)(O)O)ccc2s1)C(=O)N1CCC[C@H]1C(=O)N1CCCCC(c2ccccc2)C1 (stereo partly drawn) [Compound 125, ((2-(((2S)-3,3-dimethyl-1-oxo-1-((2S)-2-(3-phenylazepane-1-carbonyl)pyrrolidin-1-yl)butan-2-yl)carbamoyl)benzo[b]thiophen-5-yl)difluoromethyl)phosphonic acid] | 6.00 to 7.00 | 5.00 to 6.00
CC1COC(c2ccccc2)CN1C(=O)[C@@H]1CCCN1C(=O)[C@@H](NC(=O)c1cc2cc(C(F)(F)P(=O)(O)O)ccc2s1)C(C)(C)C (stereo partly drawn) [Compound 126, ((2-(((2S)-3,3-dimethyl-1-((2S)-2-(5-methyl-2-phenylmorpholine-4-carbonyl)pyrrolidin-1-yl)-1-oxobutan-2-yl)carbamoyl)benzo[b]thiophen-5-yl)difluoromethyl)phosphonic acid] | 6.00 to 7.00 | 5.00 to 6.00
CC(C)(C)[C@H](NC(=O)c1cc2cc(C(F)(F)P(=O)(O)O)ccc2s1)C(=O)N1CCC[C@H]1C(=O)N1CCOC(c2cccs2)C1 (stereo partly drawn) [Compound 127, ((2-(((2S)-3,3-dimethyl-1-oxo-1-((2S)-2-(2-(thiophen-2-yl)morpholine-4-carbonyl)pyrrolidin-1-yl)butan-2-yl)carbamoyl)benzo[b]thiophen-5-yl)difluoromethyl)phosphonic acid] | 6.00 to 7.00 | 5.00 to 6.00
CC(C)(C)[C@H](NC(=O)c1cc2cc(C(F)(F)P(=O)(O)O)ccc2s1)C(=O)N1CCC[C@H]1C(=O)N1CCOC(c2nccs2)C1 (stereo partly drawn) [Compound 128, ((2-(((2S)-3,3-dimethyl-1-oxo-1-((2S)-2-(2-(thiazol-2-yl)morpholine-4-carbonyl)pyrrolidin-1-yl)butan-2-yl)carbamoyl)benzo[b]thiophen-5-yl)difluoromethyl)phosphonic acid] | 5.00 to 6.00 | < 5.00
CC(C)(C)[C@H](NC(=O)c1cc2cc(C(F)(F)P(=O)(O)O)ccc2s1)C(=O)N1CCC[C@H]1C(=O)N1CCOC(c2cccc3ccccc23)C1 (stereo partly drawn) [Compound 129, ((2-(((2S)-3,3-dimethyl-1-((2S)-2-(2-(naphthalen-1-yl)morpholine-4-carbonyl)pyrrolidin-1-yl)-1-oxobutan-2-yl)carbamoyl)benzo[b]thiophen-5-yl)difluoromethyl)phosphonic acid] | 6.00 to 7.00 | 5.00 to 6.00
CC(C)(C)[C@H](NC(=O)c1cc2cc(C(F)(F)P(=O)(O)O)ccc2s1)C(=O)N1CCC[C@H]1C(=O)N1CCOC(c2cccnc2)C1 (stereo partly drawn) [Compound 130, ((2-(((2S)-3,3-dimethyl-1-oxo-1-((2S)-2-(2-(pyridin-3-yl)morpholine-4-carbonyl)pyrrolidin-1-yl)butan-2-yl)carbamoyl)benzo[b]thiophen-5-yl)difluoromethyl)phosphonic acid] | 6.00 to 7.00 | < 5.00
CC(C)(C)[C@H](NC(=O)c1cc2cc(C(F)(F)P(=O)(O)O)ccc2s1)C(=O)N1CCC[C@H]1C(=O)N1CCOC(c2ccncc2)C1 (stereo partly drawn) [Compound 131, ((2-(((2S)-3,3-dimethyl-1-oxo-1-((2S)-2-(2-(pyridin-4-yl)morpholine-4-carbonyl)pyrrolidin-1-yl)butan-2-yl)carbamoyl)benzo[b]thiophen-5-yl)difluoromethyl)phosphonic acid] | 5.00 to 6.00 | < 5.00
CC(C)(C)[C@H](NC(=O)c1cc2cc(C(F)(F)P(=O)(O)O)ccc2s1)C(=O)N1CCC[C@H]1C(=O)N1CCSC(c2ccccc2)C1 (stereo partly drawn) [Compound 132, ((2-(((2S)-3,3-dimethyl-1-oxo-1-((2S)-2-(2-phenylthiomorpholine-4-carbonyl)pyrrolidin-1-yl)butan-2-yl)carbamoyl)benzo[b]thiophen-5-yl)difluoromethyl)phosphonic acid] | 6.00 to 7.00 | 6.00 to 7.00
